Tested on: human renal cancer cell line Caki-1
Test: Caki-1 tumour mouse model, single and combination therapy (tumour volume)
Assay type: in vivo, BALB/c nude mice
Conditions: single agent; s.c. Caki-1 tumours; F8-IL2 20 μg i.v. 3x every 3rd day; sorafenib or sunitinib 60 mg/kg p.o. 7 days; huIFNa2b/muIFNa1 10.000 IU/10.000 IU s.c. 3x; two treatment cycles (days 11-17, 37-43)
Protocol: For the combination therapy, the human renal cancer cell line Caki-1 (clear cell carcinoma from kidney; ATCC) was cultured in DMEM containing 10% fetal bovine serum and 2 mM L-glutamine (all Invitrogen).
Female BALE/c nude mice were obtained from Charles River Laboratories. All experiments were performed according to Swiss regulations and under a project license granted by the Veterinäramt des Kantons Zürich.
Sorafenib tosylate (Nexavar, Bayer Schering) and sunitinib malate (Sutent, Pfizer) were obtained in the commercially available forms of 200 mg tablets and 50 mg capsules, respectively. The total tablet weight of sorafenib is 350 mg and an index of 1.75 was used to keep the molarity in terms of active compound. Sorafenib tablets were pulverized with mortar and pestle and kept from light in a desiccator. For in vivo administration, pulverized sorafenib was dissolved in a solution of CremophorEL:Ethanol:H2O (12.5%:12.5%:75%). The content of a sunitinib malate capsule was 167 mg and a correction factor of 3.3 was used for molarity adjustment. […]
Mice were monitored daily and tumor volumes were measured three times per week with a digital caliper using the following formula: volume=length×width^2×0.5. […] Tumor volumes are expressed as mean±SE (standard error). […]

SMILES: CNC(=O)c1cc(Oc2ccc(NC(=O)Nc3ccc(Cl)c(C(F)(F)F)c3)cc2)ccn1 [Sorafenib]
- tumour burden (tumour volume) versus PBS control: little or no effect on tumour burden
